Test results taken from patent publication US20260184663A1, “INDENE COMPOUNDS, PHARMACEUTICAL COMPOSITIONS THEREOF, AND THEIR THERAPEUTIC APPLICATIONS” (NucMito Pharmaceuticals co. Ltd., priority 2022, published 2026).

Experiments:
Format in all cases: cell-based
[1] = test system: A431 (epidermoid carcinoma); assay: Antiproliferative activity (CCK-8 cell viability), A431; settings: Homo sapiens, 72 h; for inhibition at 3.3 µM: A-431, Compound concentration: 3.3 μM; for inhibition at 3.3 µM / inhibition at 10 µM: read-out: Antiproliferative activity in cancerous cells, A431 (inhibition of cell growth); for inhibition at 10 µM: A-431, Compound concentration: 10 μM; for inhibition at 30 µM: A-431, Compound concentration: 30 μM, read-out: Antiproliferative activity in cancerous cells, A431
Outline: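 A431 epidermoid carcinoma cells grown in DMEM with 10% FBS were plated at 2,000-5,000 cells/well in 96-well plates. After attachment they were exposed to compound at 3.3 μM, 10 μM, or 30 μM for 72 h at 37° C. Viability was then assessed by CCK-8 against DMSO vehicle-treated wells.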

[2] = test system: A549 (lung adenocarcinoma); assay: Antiproliferative activity (CCK-8 cell viability), A549; settings: Homo sapiens, 72 h; for inhibition at 3.3 µM: Compound concentration: 3.3 μM; for inhibition at 3.3 µM / inhibition at 10 µM: read-out: Antiproliferative activity in cancerous cells, A549 (inhibition of cell growth); for inhibition at 10 µM: Compound concentration: 10 μM; for inhibition at 30 µM: Compound concentration: 30 μM, read-out: Antiproliferative activity in cancerous cells, A549
Outline: (§1)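 Cells grown in DMEM (HepG2, SW480), MEM (HeLa) or F-12K (A549), each with 10% FBS, then exposed to compound at 3.3, 10 or 30 μM for 72 h at 37 °C. CCK-8 absorbance at 450 nm; viability expressed as percent of DMSO-treated cells, graded as growth inhibition bands.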

HeLa (cervical cancer) = assay: Antiproliferative activity (CCK-8 cell viability), HeLa; settings: Homo sapiens, 72 h, read-out: Antiproliferative activity in cancerous cells, HELA (inhibition of cell growth); for inhibition at 3.3 µM: Compound concentration: 3.3 μM; for inhibition at 10 µM: Compound concentration: 10 μM
Outline: as §1

HepG2 (liver cancer) = assay: Antiproliferative activity (CCK-8 cell viability), HepG2; settings: Homo sapiens, 72 h; for inhibition at 3.3 µM: Compound concentration: 3.3 μM; for inhibition at 3.3 µM / inhibition at 10 µM: read-out: Antiproliferative activity in cancerous cells, HepG2 (inhibition of cell growth); for inhibition at 10 µM: Compound concentration: 10 μM
Outline: as §1

SW480 (colon cancer) = assay: Antiproliferative activity (CCK-8 cell viability), SW480; settings: Homo sapiens, 72 h; for inhibition at 3.3 µM: Compound concentration: 3.3 μM; for inhibition at 3.3 µM / inhibition at 10 µM: read-out: Antiproliferative activity in cancerous cells, SW480 (inhibition of cell growth); for inhibition at 10 µM: Compound concentration: 10 μM
Outline: as §1

[3] = test system: B16F10 (malignant melanoma); assay: Antiproliferative activity (CCK-8 cell viability), B16F10; settings: Mus musculus, 72 h; for inhibition at 3.3 µM: B16-F10, Compound concentration: 3.3 μM; for inhibition at 3.3 µM / inhibition at 10 µM: read-out: Antiproliferative activity in cancerous cells, B16F10 (inhibition of cell growth); for inhibition at 10 µM: B16-F10, Compound concentration: 10 μM; for inhibition at 30 µM: B16-F10, Compound concentration: 30 μM, read-out: Antiproliferative activity in cancerous cells, B16F10
Outline: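 B16F10 melanoma cells grown in DMEM with 10% FBS were plated in 96-well plates at 2,000-5,000 cells/well. After attachment they were exposed to compound in medium for 72 h at 37° C. CCK-8 solution (10 μL) was then added, and after 4 h at 37° C absorbance was read at 450 nm.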

[4] = test system: MDA-MB-231 (breast cancer); assay: Antiproliferative activity (CCK-8 cell viability), MDA-MB-231; settings: Homo sapiens, 72 h, read-out: Antiproliferative activity in cancerous cells, MDA-MB-231 (inhibition of cell growth); for inhibition at 3.3 µM: Compound concentration: 3.3 μM; for inhibition at 10 µM: Compound concentration: 10 μM
Outline: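 MDA-MB-231 breast cancer cells, grown in DMEM with 10% FBS, were plated in 96-well plates at 2,000-5,000 cells/well. Once attached, they were exposed to compound and incubated at 37° C. for 72 h. Viability was then measured with CCK-8 (10 μL per well, 4 h at 37° C.) by absorbance at 450 nm, relative to DMSO vehicle wells.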

[5] = test system: alpha-smooth muscle actin (α-SMA); assay: Inhibition of TGF-β induced expression of alpha-smooth muscle actin (α-SMA) in CFSC cells (western blot); settings: compound at 10 μM, TGF-β (10 ng/mL), 24 hours, band intensity vs TGF-β only
Experimental: The ability of a compound to inhabit the TGF-β induced expression of alpha-smooth muscle actin (α-SMA) was evaluated in CCl4-treated fat storing (CFSC) cells. α-SMA is considered as a reliable marker of hepatic stellate cell activation and a key biomarker for liver fibrosis.
CFSC cells maintained in a DMEM medium supplemented with 10% fetal bovine serum were seeded to 12-well culture dishes and grown to a confluence of 60-70% the next day. Culture was changed to a serum-free DMEM medium, and the cells were treated with a compound at 10 μM in the presence of TGF-β (10 ng/mL). The cells were incubated for another 24 hours. All culture was maintained at 37° C. in 5% carbon dioxide.
An NP-40 lysate solution (50 mM Tris (pH 7.4), 150 mM NaCl, 1% NP-40) with EDTA free cocktail added was used to lyse the cells on ice for 30 min. The lysate was collected and centrifuged at 4° C. for 10 min at 12,000 rpm. The pellet was discarded and the supernatant was transferred to a new tube. Cell lysates were loaded with 5× loading buffer and boiled for 10 min, resolved by 10% SDS-polyacrylamide gel electrophoresis (SDS-PAGE), and transferred to PVDF membrane. The membrane was blocked with 5% skim milk in Tris-buffered saline and TWEEN® 20 (TBST; 10 mM Tris-HCl (pH 8.0), 150 mM NaCl, 0.1% TWEEN® 20) for 1 h at room temperature and then incubated with α-SMA and β-actin antibodies overnight at 4° C. After washing twice with TBST, the membrane was probed with a horseradish […] anti-immunoglobulin (1:5000 dilution) for 1 h at room temperature. After two subsequent rinses in TBST, immunoreactive products were reacted with ECL and visualized by a UVP CHEMSTUDIO™ imaging system. The western blotting bands are quantitated using an ImageJ software. The percentage of inhibition was obtained by calculating the percentage decrease in the band intensity compared to the one treated with TGF-β only.
The results are summarized in Table 1, where A represents a value no less of 80% inhibition, B represents a value less than […] but no less than […], C represents a value less than 50% but no less than 30% inhibition, and D represents a value less than 30% inhibition with a compound at 10 μM.

SMILES	inhibition at 3.3 µM [1] [%]	inhibition at 10 µM [1] [%]	inhibition at 3.3 µM [2] [%]	inhibition at 10 µM [2] [%]	inhibition at 3.3 µM (HeLa (cervical cancer)) [%]	inhibition at 10 µM (HeLa (cervical cancer)) [%]	inhibition at 3.3 µM (HepG2 (liver cancer)) [%]	inhibition at 10 µM (HepG2 (liver cancer)) [%]	inhibition at 3.3 µM (SW480 (colon cancer)) [%]	inhibition at 10 µM (SW480 (colon cancer)) [%]	inhibition at 3.3 µM [3] [%]	inhibition at 10 µM [3] [%]	inhibition at 3.3 µM [4] [%]	inhibition at 10 µM [4] [%]	inhibition at 10 µM [5] [%]	inhibition at 30 µM [1] [%]	inhibition at 30 µM [3] [%]	inhibition at 30 µM [2] [%]	inhibition at 30 µM (HepG2 (liver cancer); Compound concentration: 30 μM, read-out: Antiproliferative activity in cancerous cells, HepG2) [%]	inhibition at 30 µM (SW480 (colon cancer); Compound concentration: 30 μM, read-out: Antiproliferative activity in cancerous cells, SW480) [%]
CC1=C(CC(=O)O)c2cc(C)ccc2/C1=C\c1cccc(COc2ccccc2)c1 [B12, (Z)-2-(2,5-Dimethyl-1-(3-(phenoxymethyl)benzylidene)-1H-inden-3-yl)acetic acid]	≥ 50	≥ 50	30 to 50	≥ 50	< 30	≥ 50	< 30	≥ 50	< 30	< 30	< 30	30 to 50	≥ 50	≥ 50	> 80	–	–	–	–	–
O=C(O)CC1=C(Cc2ccc(Oc3ccc(F)cc3)cc2)/C(=C/c2ccc(CN3CCOCC3)cc2)c2ccc(F)cc21 [A113, (Z)-2-(5-Fluoro-2-(4-(4-fluorophenoxy)benzyl)-1-(4-(morpholinomethyl)-benzylidene)-1H-inden-3-yl)acetic acid]	< 30	< 30	30 to 50	30 to 50	≥ 50	≥ 50	≥ 50	≥ 50	≥ 50	≥ 50	< 30	< 30	≥ 50	≥ 50	> 80	< 30	< 30	–	–	–
CC1=C(Cc2noc(=O)[nH]2)c2cc(F)ccc2/C1=C\c1ccc(Oc2ccc(F)cc2)cc1 [C26, (Z)-3-((5-Fluoro-1-(4-(4-fluorophenoxy)benzylidene)-2-methyl-1H-inden-3-yl)-methyl)-1,2,4-oxadiazol-5(4H)-one]	< 30	≥ 50	30 to 50	≥ 50	< 30	≥ 50	< 30	≥ 50	< 30	≥ 50	< 30	≥ 50	≥ 50	≥ 50	> 80	–	–	–	–	–
CC1=C(CC(=O)O)c2cc(F)ccc2/C1=C\c1ccc(Sc2nc3ccccc3[nH]2)cc1 [C36, (Z)-2-(1-(4-((1H-Benzo[d]imidazol-2-yl)thio)benzylidene)-5-fluoro-2-methyl-1H-inden-3-yl)acetic acid]	< 30	< 30	< 30	< 30	< 30	30 to 50	< 30	< 30	< 30	30 to 50	< 30	< 30	< 30	30 to 50	< 30	< 30	30 to 50	30 to 50	< 30	30 to 50
C=CC1=C(CC(=O)O)c2ccccc2/C1=C\c1ccc(Oc2ccc(F)cc2)cc1 [C25, (Z)-2-(1-(4-(4-Fluorophenoxy)benzylidene)-2-vinyl-1H-inden-3-yl)acetic acid]	< 30	< 30	< 30	30 to 50	30 to 50	30 to 50	< 30	< 30	30 to 50	30 to 50	≥ 50	≥ 50	≥ 50	≥ 50	< 30	–	–	30 to 50	–	–
CC1=C(CC(=O)O)c2cc(F)ccc2/C1=C\c1ccc(COc2ccc(F)cc2)cc1F [B23, (Z)-2-(5-Fluoro-1-(2-fluoro-4-((4-fluorophenoxy)methyl)benzylidene)-2-methyl-1H-inden-3-yl)acetic acid]	–	–	–	–	–	–	–	–	–	–	–	–	–	–	50 to 80	–	–	–	–	–
COc1cc(COc2ccc(F)cc2)ccc1/C=C1/C(C)=C(CC(=O)O)c2cc(F)ccc21 [B25, (Z)-2-(5-Fluoro-1-(4-((4-fluorophenoxy)methyl)-2-methoxybenzylidene)-2-methyl-1H-inden-3-yl)acetic acid]	–	–	–	–	–	–	–	–	–	–	–	–	–	–	> 80	–	–	–	–	–
CC1=C(CCO)c2cc(F)ccc2/C1=C\c1cccc(Oc2ccccc2)c1 [A202, (Z)-2-(5-Fluoro-2-methyl-1-(3-phenoxybenzylidene)-1H-inden-3-yl)ethan-1-ol]	–	–	–	–	–	–	–	–	–	–	–	–	–	–	< 30	–	–	–	–	–
CC1=C(C(C)C(=O)O)c2ccccc2/C1=C\c1ccc(C(C)C)cc1 (centres unmarked) [D3, (Z)-2-(1-(4-Isopropylbenzylidene)-2-methyl-1H-inden-3-yl)propanoic acid]	–	–	–	–	–	–	–	–	–	–	–	–	–	–	< 30	–	–	–	–	–
CC1=C(CCC(=O)O)c2ccccc2/C1=C\c1cccc(Oc2ccccc2)c1 [C24, (Z)-3-(2-Methyl-1-(3-phenoxybenzylidene)-1H-inden-3-yl)propanoic acid]	–	–	–	–	–	–	–	–	–	–	–	–	–	–	< 30	–	–	–	–	–
CC1=C(C=CC(=O)O)c2cc(F)ccc2/C1=C\c1ccc(Oc2ccc(F)cc2)cc1 [C33, 3-(5-Fluoro-1-((Z)-4-(4-fluorophenoxy)benzylidene)-2-methyl-1H-inden-3-yl)-acrylic acid]	–	–	–	–	–	–	–	–	–	–	–	–	–	–	> 80	–	–	–	–	–
